Where a name gives a salt, the structure may show the parent alone.
Molecular target: PCAF719-832 bromodomain (Homo sapiens (Human), UniProt Q92831)
Experiment: PCAF AlphaLisa binding assay
Settings: PCAF bromodomain 225 nM, biotinylated small molecule ligand 6 nM

Sequence of PCAF719-832 bromodomain (Q92831 719-832): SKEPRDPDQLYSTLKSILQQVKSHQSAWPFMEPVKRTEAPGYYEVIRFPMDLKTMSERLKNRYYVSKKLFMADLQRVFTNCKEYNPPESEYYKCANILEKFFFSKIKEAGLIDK

SMILES	IC50 [nM]
C[C@H](Nc1nn(C)c(=O)c2ccccc12)[C@H](c1ccc(S(=O)(=O)c2ccccc2)cc1)N(C)C [Example 55, 4-(((1S,2S)-1-(dimethylamino)-1-(4-(phenylsulfonyl)phenyl)propan-2-yl)amino)-2-methylphthalazin-1(2H)-one]	61
COC(=O)c1ccc([C@@H]([C@H](C)Nc2nn(C)c(=O)c3cccnc23)N(C)C)cc1 [Example 68, Methyl 4-((1S,2S)-1-(dimethylamino)-2-((6-methyl-5-oxo-5,6-dihydropyrido[2,3-d]pyridazin-8-yl)amino)propyl)benzoate]	160
C[C@H](Nc1nn(C)c(=O)c2cccnc12)[C@H](c1ccc(C(=O)O)cc1)N(C)C [Example 81, 4-((1S,2S)-1-(dimethylamino)-2-((6-methyl-5-oxo-5,6-dihydropyrido[2,3-d]pyridazin-8-yl)amino)propyl)benzoic acid]	98
C[C@H](Nc1nn(C)c(=O)c2cccnc12)[C@H](c1ccc(C(=O)N2CCOCC2)cc1)N(C)C [Example 82, 8-(((1S,2S)-1-(dimethylamino)-1-(4-(morpholine-4-carbonyl)phenyl)propan-2-yl)amino)-6-methylpyrido[2,3-d]pyridazin-5(6H)-one]	59
C[C@H](Nc1nn(C)c(=O)c2ccccc12)[C@H](c1ccc(=O)[nH]c1)N(C)C [Example 88, 4-(((1S,2S)-1-(dimethylamino)-1-(6-oxo-1,6-dihydropyridin-3-yl)propan-2-yl)amino)-2-methylphthalazin-1(2H)-one]	80

Now those with a lower IC50, led by results:

IC50 [nM]	SMILES
42	C[C@H](Nc1nn(C)c(=O)c2ccccc12)[C@H](c1ccc(O)cc1)N(C)C [Example 76, 4-(((1S,2S)-1-(dimethylamino)-1-(4-hydroxyphenyl)propan-2-yl)amino)-2-methylphthalazin-1(2H)-one]
30	CC(C)OC(=O)c1ccc([C@@H]([C@H](C)Nc2nn(C)c(=O)c3cccnc23)N(C)C)cc1 [Example 86, Isopropyl 4-((1S,2S)-1-(dimethylamino)-2-((6-methyl-5-oxo-5,6-dihydropyrido[2,3-d]pyridazin-8-yl)amino)propyl)benzoate]
29	C[C@H](Nc1nn(C)c(=O)c2cccnc12)[C@H](c1ccc(C(=O)OCc2ccccc2)cc1)N(C)C [Example 87, benzyl 4-((1S,2S)-1-(dimethylamino)-2-((6-methyl-5-oxo-5,6-dihydropyrido[2,3-d]pyridazin-8-yl)amino)propyl)benzoate hydrochloride]

Source: patent US10155764B2, “Therapeutic compounds and uses thereof” (GENENTECH, INC., priority 2014, dated 2018)
